Data on four compounds can be found in patent publication US20180371044A1, “PEPTIDOMIMETIC MACROCYCLES” (Aileron Therapeutics, Inc., priority 2015, published 2018).

One series is described as follows: Plasma compatibility. The class given is physicochemical. The protocol:
The plasma compatibility of exemplary peptidomimetic macrocycles was also determined. Peptidomimetic macrocycles with a plasma compatability value (PC) that is greater than 0.1 were determined as being plasma compatible.

Series [1] in a line: Plasma PK/PD study in rats. Type of series: in vivo, rat. Conditions: male Sprague-Dawley rats. The method, then: Five peptidomimetic macrocycles of the invention, as well as sermorelin, were studied to determine pharmacokinetic and pharmacodynamic parameters in rats. Male Sprague-Dawley rats (300 g, non-fasted, cannulated) were used. The study had three arms: IV administration, SC administration, and SC administration (vehicle control). For experiments using sermorelin, a dose level of 3 mg/kg IV/SC bolus was used (dose volume of […] dose and dose concentration of 1 mg/mL). The vehicle used was: 10 wt % N, N-Dimethylacetamide, 10 wt % DMSO, 2 wt % Solutol HS 15 in water for injection containing 45 mg/mL (4.5 wt %) Mannitol and 25 mM (0.38 wt %) Histidine (pH 7.5; 320 mOsm/kg). The peptide was first dissolved at high concentration in DMA and DMSO before a second dilution in Solutol vehicle.
For experiments using peptidomimetic macrocycles, 0.1 mL of DMA and 0.1 mL of DMSO were used to combine with each mg of macrocycle (˜4.3-4.5 mg of macrocycle used in each experiment). Sonication was used to ensure complete solubilization. 0.8 mL of Solutol vehicle was used for each mg of macrocycle in DMA/DMSO. The solutions were mixed gently with pipet or light vortexing. Fresh vials were used for each day of dosing, and macrocycles were stored solid at −20° C. prior to formulation.
For each study arm, 2 rats were bled (350 μL) at specific time points (5 min, 15 min, 30 min, 1 h, 2 h, 4 h, 8 h, 24 h, and 48 h) and a 150 μL bleed was performed just before dosing. Plasma was prepared into K2EDTA tubes by centrifuging for 20 minutes at 4° C. at 2000G maximum 30 minutes after collection. From each 350 μL bleed, 120 μL were transferred to one tube for PK studies and 50 μL to another tube for PD studies and frozen immediately. From the 150 μL bleed, 70 μL were transferred to one tube for PD studies and frozen immediately.

Usually MRT stands for the average time that molecules of a dose stay in the body. The term AUC(0-inf) denotes total exposure, with the tail of the curve extrapolated. Read a high AUC(0-inf) as more exposure.

Where a SMILES comes first, the peptide text is derived from it. Bridges are numbered along the chain shown (N, C = ends). [ ]: non-standard residue; d: D form. The star is where a group is joined. Decanoyl(3,6,9-trioxa) = COCCOCCOCC(=O)*; S5 = C=CCCC[C@](C)(N)C(=O)O; Nle = CCCC[C@H](N)C(=O)O

As to `CC/C=C/CC(=O)N[C@@H](Cc1ccc(O)cc1)C(=O)N[C@@H](C)C(=O)N[C@@H](CC(=O)O)C(=O)N[C@@H](C)C(=O)N[C@H](C(=O)N[C@@H](Cc1ccccc1)C(=O)N[C@H](C(=O)N[C@@H](CC(N)=O)C(=O)N[C@@H](CO)C(=O)N[C@@H](Cc1ccc(O)cc1)C(=O)N[C@@H](CCCNC(=N)N)C(=O)N[C@@H](CCCCN)C(=O)N[C@H](C(=O)N[C@@H](CC(C)C)C(=O)NCC(=O)N[C@@H](CCC(N)=O)C(=O)N[C@@H](CC(C)C)C(=O)N[C@@H](CO)C(=O)N[C@@H](C)C(=O)N[C@@H](CCCNC(=N)N)C(=O)N[C@@H](CCCCN)C(=O)N[C@@H](CC(C)C)C(=O)N[C@@H](CC(C)C)C(=O)N[C@@H](CCC(N)=O)C(=O)N[C@@H](CC(=O)O)C(=O)N[C@H](C(=O)N[C@@H](CCSC)C(=O)N[C@@H](CO)C(=O)N[C@@H](CCCNC(=N)N)C(=O)N[C@@H](CCC(N)=O)C(=O)N[C@@H](CCC(N)=O)C(=O)NCC(=O)N[C@@H](CCC(=O)O)C(=O)N[C@@H](CO)C(=O)N[C@@H](CC(N)=O)C(=O)N[C@@H](CCC(N)=O)C(=O)N[C@@H](CCC(=O)O)C(=O)N[C@@H](CCCNC(=N)N)C(=O)NCC(=O)N[C@@H](C)C(=O)N[C@@H](CCCNC(=N)N)C(=O)N[C@@H](C)C(=O)N[C@@H](CCCNC(=N)N)C(=O)N[C@@H](CC(C)C)C(N)=O)[C@@H](C)CC)C(C)C)[C@@H](C)O)[C@@H](C)CC` [SP-1, reference compound], the “Plasma Compatability” value in the series “Plasma compatibility” was found to be 3.5 mg/mL. The “AUC Ext (%)” value in series [1] is given as 13.8%. Moreover, the mean residence time MRT in series [1] (rat, 3 mg/kg) stood at 1.6 h. For the same compound, the clearance in series [1] (rat, 3 mg/kg, read-out: Clp (converted)) is 2.85 mL/min/kg. Also, the Vd in series [1] (rat, 3 mg/kg, read-out: Vdss) came out at 0.267 L/kg. Further, the half-life in series [1] (rat, 3 mg/kg, read-out: t ½ (converted)) was 55.1 h. In series [1] (rat, 3 mg/kg, route not given), the AUC(0-inf) came to 17500 ng·h/mL.

Consider `CCCC[C@H](NC(=O)[C@@H](NC(=O)[C@H](CC(=O)O)NC(=O)[C@H](CCC(N)=O)NC(=O)[C@H](CC(C)C)NC(=O)[C@H](C)NC(=O)[C@H](CCCCN)NC(=O)[C@H](CCCNC(=N)N)NC(=O)[C@H](C)NC(=O)[C@H](CO)NC(=O)[C@]1(C)CCCC=CCCC[C@](C)(NC(=O)[C@H](CCCCN)NC(=O)[C@H](CCCNC(=N)N)NC(=O)[C@H](Cc2ccc(O)cc2)NC(=O)[C@H](CO)NC(=O)[C@H](CCC(N)=O)NC(=O)[C@@H](NC(=O)[C@H](Cc2ccccc2)NC(=O)[C@@H](NC(=O)[C@H](C)NC(=O)[C@H](CC(=O)O)NC(=O)[C@@H](C)NC(=O)[C@@H](N)Cc2ccc(O)cc2)[C@@H](C)CC)[C@@H](C)O)C(=O)N[C@@H](CC(C)C)C(=O)N[C@@H](C)C(=O)N[C@@H](CCC(=O)O)C(=O)N1)[C@@H](C)CC)C(=O)N[C@@H](CO)C(=O)N[C@@H](CCCNC(=N)N)C(N)=O` [SP-105] (H-Y[dA]DAIFTQSYRK[S5]LAE[S5]SARKALQDI[Nle]SR-NH2; staple 13-17), for which, in “Plasma compatibility”, the “Plasma Compatability” value is listed as 1.2 mg/mL.

For `CCCC[C@@H]1NC(=O)[C@H](C)NC(=O)[C@H](CC(C)C)NC(=O)[C@@](C)(NC(=O)[C@H](CCCCN)NC(=O)[C@H](CCCNC(=N)N)NC(=O)[C@H](Cc2ccc(O)cc2)NC(=O)[C@H](CO)NC(=O)[C@H](CCC(N)=O)NC(=O)[C@@H](NC(=O)[C@H](Cc2ccccc2)NC(=O)[C@@H](NC(=O)[C@H](C)NC(=O)[C@H](CC(=O)O)NC(=O)[C@@H](C)NC(=O)[C@@H](N)Cc2ccc(O)cc2)[C@@H](C)CC)[C@@H](C)O)CCCC=CCCC[C@@](C)(C(=O)N[C@@H](CO)C(=O)N[C@@H](C)C(=O)N[C@@H](CCCNC(=N)N)C(=O)N[C@@H](CCCCN)C(=O)N[C@@H](C)C(=O)N[C@@H](CC(C)C)C(=O)N[C@@H](CCC(N)=O)C(=O)N[C@@H](CC(=O)O)C(=O)N[C@H](C(=O)N[C@@H](CCCC)C(=O)N[C@@H](CO)C(=O)N[C@@H](CCCNC(=N)N)C(N)=O)[C@@H](C)CC)NC1=O` [SP-106] (H-Y[dA]DAIFTQSYRK[S5]LA[Nle][S5]SARKALQDI[Nle]SR-NH2; staple 13-17), the “Plasma Compatability” value in “Plasma compatibility” is recorded as 0.9 mg/mL.

Take `CCCC[C@H](NC(=O)[C@@H](NC(=O)[C@H](CC(=O)O)NC(=O)[C@H](CCC(N)=O)NC(=O)[C@H](CC(C)C)NC(=O)[C@H](C)NC(=O)[C@H](CCCCN)NC(=O)[C@H](CCCNC(=N)N)NC(=O)[C@H](C)NC(=O)[C@H](CO)NC(=O)[C@]1(C)CCCC=CCCC[C@](C)(NC(=O)[C@H](CCCCN)NC(=O)[C@H](CCCNC(=N)N)NC(=O)[C@H](Cc2ccc(O)cc2)NC(=O)[C@H](CO)NC(=O)[C@H](C)NC(=O)[C@@H](NC(=O)[C@H](Cc2ccccc2)NC(=O)[C@@H](NC(=O)[C@H](C)NC(=O)[C@H](CC(=O)O)NC(=O)[C@@H](C)NC(=O)[C@H](Cc2ccc(O)cc2)NC(=O)COCCOCCOC)[C@@H](C)CC)[C@@H](C)O)C(=O)N[C@@H](CC(C)C)C(=O)N[C@@H](C)C(=O)N[C@@H](CCC(N)=O)C(=O)N1)[C@@H](C)CC)C(=O)N[C@@H](CO)C(=O)N[C@@H](CCCNC(=N)N)C(N)=O` [SP-135] ({Decanoyl(3,6,9-trioxa)}-Y[dA]DAIFTASYRK[S5]LAQ[S5]SARKALQDI[Nle]SR-NH2; staple 13-17; N-terminus and C-terminus assumed): the “Plasma Compatability” value in the series “Plasma compatibility” worked out at 1.6 mg/mL.
